The values below come from PMC10385824, “Antiproliferative and Tubulin-Destabilising Effects of 3-(Prop-1-en-2-yl)azetidin-2-Ones and Related Compounds in MCF-7 and MDA-MB-231 Breast Cancer Cells” (Pharmaceuticals, 2023).

In this experiment the test system is MCF-7 cells. Briefly: Annexin-V/PI apoptosis assay. The following applies: for cells undergoing apoptosis (early+late): 72 h.
Setting [1] is: Homo sapiens, MCF7, 72 h, read-out: Viable.

Method: Flow cytometry using annexin-V and propidium iodide (PI) was used to detect apoptotic cell death in MCF-7 cells. […] Cells were then incubated on ice in darkness for 30 min in annexin-V-containing binding buffer [1:100]. Cells were washed once in binding buffer and then re-suspended in propidium iodide containing binding buffer [1:1000]. Cells were analysed directly using the BD Accuri flow cytometer and Prism software. Four cell populations are produced in this assay: annexin-V- and PI-negative (Q4, healthy cells), annexin-V-positive and PI-negative (Q3, early apoptosis), annexin-V- and PI-positive (Q2, late apoptosis) and annexin-V-negative and PI-positive (Q1, necrosis). CA-4 (50 nM) was used as the positive control for apoptosis.
Cells were then collected and processed for analysis.

As for `C=C(C)C1C(=O)N(c2cc(OC)c(OC)c(OC)c2)C1c1ccc(OC)c(O)c1` (stereo not shown) [9q, 4-(3-Hydroxy-4-methoxyphenyl)-1-(3,4,5-trimethoxyphenyl)-3-(prop-1-en-2-yl)azetidin-2-one], for the setting “50 nM”, the “cells undergoing apoptosis (early+late)” value is on record as 27%. Further, the “cells undergoing apoptosis (early+late)” value (500 nM) came out at 38.9%. Moreover, under setting [1], the viability at 0.05 µM was found to be 69.2% and the viability at 0.5 µM came out at 57%.
